Assay results taken from patent EP0063826A2, “2-Amino-benzoic-acid derivatives, their preparation and their use as medicines or intermediates” (Dr. Karl Thomae GmbH, priority 1980, dated 1981).

Tested on: Mäusen
Assay: Acute oral toxicity in mice (orienting)
Type: in vivo
Conditions: 2 000 mg/kg by gavage, group of 10, observation 14 days
Protocol: Die akute Toxizität wurde orientierend an Gruppen von 10 Mäusen (5 weibliche und 5 männliche Mäuse; Beobachtungszeit: 14 Tage) nach Gabe einer Dosis von 2 000 mg/kg pro Tier in Methylcellulose-Suspension per Schlundsonde bestimmt: […]

Q: With `O=C(O)c1cc(Cl)ccc1N1CCC2(CC1)OCCO2` [Substanz A, 5-Chlor-2-(1,4-dioxa-8-aza-spiroL4,6/decan-8-yl)-benzoe-säure] as the compound, how does the Tieren gestorben read?
A: 0 von 10
